# Experimental data published in patent US20120045393A1 (priority 2009, published 2012).
# Like-named read-outs stand apart in the source and are kept apart here. Non-standard residues stand in square brackets, D forms with d. Primed or numbered codes have the meaning given here. *: point of attachment. DO3A10CM(3) = metal chelator group attached at the N-terminus (X in table rows); Bpa = N[C@@H](Cc1ccc(C(=O)c2ccccc2)cc1)C(=O)O; d1Nal = N[C@H](Cc1cccc2ccccc12)C(=O)O; d2Nal = N[C@H](Cc1ccc2ccccc2c1)C(=O)O; Hyp = O=C(O)[C@@H]1C[C@@H](O)CN1; d3Pal = N[C@H](Cc1cccnc1)C(=O)O; His(1-Me) = 1-methylhistidine; DO3A10CM = not defined here; Nicotinoyl = O=C(c1cccnc1)*; Bpa4 = non-natural residue; Amfe4 = not defined here; Bzgly = not defined here; Dcfe4 = not defined here; dCfe4 = not defined here; Afe4 = not defined here; azaGly = NNC(=O)O; Sar = CNCC(=O)O; iPr = CC(C)*
# B1: BRU-2792 (peptide)
# peptide: DO3A10CM-G[Bzgly]HWSH[dR]W[Bpa]P[azaGly]-NH2
# modifications: reading uncertain
# B2: BRU-2725 (peptide)
# peptide: XHWSHXWXPX
# modifications: DO3A10CM on N-terminus; AA1 Sar; AA6 Darg; AA8 Cfe4; AA10 azaGly-NH2
# B3: BRU-2722 (peptide)
# peptide: XHWSHXWXPX
# modifications: DO3A10CM on N-terminus; AA1 Sar; AA6 Darg; AA8 F5fe; AA10 azaGly-NH2
# B4: BRU-2624 (peptide)
# peptide: XHWSHXWXPX
# modifications: DO3A10CM on N-terminus; AA1 Sar; AA6 Darg; AA8 Nal2; AA10 azaGly-NH2
# B5: BRU-2823 (peptide)
# peptide: XHWSHXWXPX
# modifications: DO3A10CM on N-terminus; AA1 Sar; AA6 Darg; AA8 Thy; AA10 azaGly-NH2
# B6: BRU-2738 (peptide)
# peptide: XFWSHXWXPX
# modifications: as printed: DO3A10CM-Sar-Phe-Trp-Ser-His-Darg-Trp-Bpa4-Pro-azaGly-NH2
# B7: BRU-2721 (peptide)
# peptide: XHWSHXWXPX
# modifications: DO3A10CM on N-terminus; AA1 Sar; AA6 Darg; AA8 Dip; AA10 azaGly-NH2
# B8: BRU-2644 (peptide)
# peptide: {DO3A10CM(3)}-G[d2Nal][dCfe4][d3Pal]SH[dR]WYP[dA]-NH2
# modifications: reading uncertain; also: printed as DO3A10CM-Gly-Dnal2-Dcfe4-Dpal3-Ser-His-Darg-Trp-Tyr-Pro-Dala-NH2
# B9: BRU-2812 (peptide)
# peptide: DO3A10CM-[d2Nal][Afe4]WSH[dR]W[Bpa]P[azaGly]-NH2
# modifications: reading uncertain; also: printed as DO3A10CM-Dnal2-Afe4-Trp-Ser-His-Darg-Trp-Bpa4-Pro-azaGly-NH2
# How the values were obtained:
# [1] = system: EFO-27 human ovarian cancer cells (LHRH binding sites); test: Direct binding/uptake of 177Lu-labeled LHRH-II analogs to EFO-27 cells; details: 177Lu-labeled analog, single concentration
# Description: All reagents and chemicals were obtained from Sigma unless otherwise specified. LHRH analogs and ^177Lu-LHRH-II analogs were prepared by in-house chemists, as described elsewhere in the application. ^177Lu-LHRH-II analogs were not HPLC purified, as they had been prepared using formulation conditions that yielded high RCP without the need for purification. […] The HPLC-purified material was taken in a stabilizing buffer containing 5% lactose, 0.1% L-cysteine hydrochloride and 800 KIU/mL aprotinin and received as a lyophilized product and stored at −70° C. This was reconstituted in distilled water, aliquoted and stored at −70° C. The radioactivity was determined using Microplate Scintillation counter (Wallac Microbeta Trilux).
# For the binding assay, EFO-27 cells were seeded onto 96-well clear flat-bottom tissue-culture-treated plates at 15,000/well density in the growth medium and used for assay on day 2 post-seeding. Cells were routinely checked for confluence and contamination and cell count was done occasionally to ensure consistency in cell numbers.
# Direct Binding: Direct binding studies were carried out by incubating appropriate ^177Lu-labeled compounds with EFO-27 cells at 4° C. for 1 h followed by washing off the unbound radioactivity. Non-specific binding was determined by incubating the ^177Lu-LHRH-II analogs in the presence of a large excess (30 uM) of cold (unlabeled) LHRH-II analogs. A 96-well plate format was used.
# [2] = system: LHRH binding sites on human ovarian cancer cells (EFO-27);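 note: Cell-associated radioactivity on confluent EFO-27 monolayers in 96-well plates, measured by microplate scintillation counting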
# [3] = target: LHRH binding sites on EFO-27 human ovarian cancer cells (human); test: competition with [125I-Tyr8]BRU-2477 on EFO-27 cells
# [4] = target: LHRH receptor (LHRH binding sites) on EFO-27 human ovarian cancer cells (human); test: competition with [125I-Tyr8]BRU-2477 for binding to EFO-27 cells
# [5] = read-out: 125I-LHRH II Competition EC50, Table 24, unlabeled analogs, EFO-27 cells
# [6] = Table 8: N-substituted amino acid at position 1 and Gly as linker, in vitro binding on EFO-27 cells
# [7] = Table 13: linker between AA1 and DO3A10CM, EFO-27 cells
Molecule,177Lu-LHRH II Direct binding % Bound [1] [%],"EC50 [2, 5] [µM]",also measured
2766 (DO3A10CM-G[d1Nal]HWSH[dR]W[Bpa]P[azaGly]-NH2; reading uncertain) [compound 2766],10.29,0.62,–
N=C(N)NCCC[C@@H](NC(=O)[C@H](Cc1c[nH]cn1)NC(=O)[C@H](CO)NC(=O)[C@H](Cc1c[nH]c2ccccc12)NC(=O)[C@H](Cc1c[nH]cn1)NC(=O)CN(CCc1ccc(O)cc1)C(=O)CNC(=O)CN1CCN(CC(=O)O)CCN(CC(=O)O)CCN(CC(=O)O)CC1)C(=O)N[C@@H](Cc1c[nH]c2ccccc12)C(=O)N[C@@H](Cc1ccc(C(=O)c2ccccc2)cc1)C(=O)N1CCC[C@H]1C(=O)NNC(N)=O [compound 2797],4.64,–,"EC50 [2, 6]: 0.45 µM"
CN(CC(=O)N[C@@H](Cc1c[nH]cn1)C(=O)N[C@@H](Cc1c[nH]c2ccccc12)C(=O)N[C@@H](CO)C(=O)N[C@@H](Cc1c[nH]cn1)C(=O)N[C@H](CCCNC(=N)N)C(=O)N[C@@H](Cc1c[nH]c2ccccc12)C(=O)N[C@@H](Cc1ccc(C(=O)c2ccccc2)cc1)C(=O)N1CCC[C@H]1C(=O)NNC(N)=O)C(=O)CN1CCN(CC(=O)O)CCN(CC(=O)O)CCN(CC(=O)O)CC1 [compound 2443],1.8,0.95,"EC50 ([2]; Table 11: modification of amino acid at position 5, EFO-27 cells): 0.95 µM; EC50 [2, 7]: 0.95 µM"
2722 (XHWSHXWXPX; not fully specified; N-methyl) [compound 2722],0.36,4.62,–
2644 (DO3A10CM-G[d2Nal][Dcfe4][d3Pal]SH[dR]WYP[dA]-NH2; reading uncertain) [compound 2644],2.13,2.91,–
2725 (XHWSHXWXPX; not fully specified; N-methyl) [compound 2725],0.41,2.26,–
2721 (XHWSHXWXPX; not fully specified; N-methyl) [compound 2721],0.79,4.55,–
2823 (XHWSHXWXPX; not fully specified; N-methyl) [compound 2823],1.00,1.61,–
2642 (DO3A10CM-G[d2Nal][Dcfe4][d3Pal]S[Metyr][dK](Nicotinoyl)LK(iPr)[Hyp][dA]-NH2; reading uncertain) [compound 2642],0.105,> 10,–
2742 (XHWSHXWXPX; N-methyl) [compound 2742],0.125,> 10,–
2738 (XFWSHXWXPX; N-methyl) [compound 2738],1.41,–,–
2812 (DO3A10CM-[d2Nal][Afe4]WSH[dR]W[Bpa]P[azaGly]-NH2; not fully specified; printed as X-Dnal2-Afe4-Trp-Ser-His-Darg-Trp-Bpa4-Pro-azaG-NH2; reading uncertain) [compound 2812],5.80,3.69,–
N=C(N)NCCC[C@H](NC(=O)[C@@H](Cc1ccc2ccccc2c1)NC(=O)CN1CCN(CC(=O)O)CCN(CC(=O)O)CCN(CC(=O)O)CC1)C(=O)N[C@@H](Cc1c[nH]c2ccccc12)C(=O)N[C@@H](CO)C(=O)N[C@@H](Cc1c[nH]cn1)C(=O)N[C@H](CCCNC(=N)N)C(=O)N[C@@H](Cc1c[nH]c2ccccc12)C(=O)N[C@@H](Cc1ccc(C(=O)c2ccccc2)cc1)C(=O)N1CCC[C@H]1C(=O)NNC(N)=O [compound 2813],18.80,0.3,–
2756 (DO3A10CM-[Sar][Amfe4]WSH[dR]W[Bpa4]P[azaGly]-NH2; reading uncertain) [compound 2756],5.17,0.28,–
2624 (XHWSHXWXPX; N-methyl) [compound 2624],4.03,2.01,–
2896 (XHWSHXWXPX; not fully specified; N-methyl) [compound 2896],0.70,3.2,–

Molecule,177Lu-LHRH II Direct binding % Bound [1] [%],"EC50 [2, 5] [µM]",also measured
N=C(N)NCCC[C@H](NC(=O)[C@@H](Cc1ccc2ccccc2c1)NC(=O)CN1CCN(CC(=O)O)CCN(CC(=O)O)CCN(CC(=O)O)CC1)C(=O)N[C@@H](Cc1c[nH]c2ccccc12)C(=O)N[C@@H](CO)C(=O)N[C@@H](Cc1c[nH]cn1)C(=O)N[C@H](CCCNC(=N)N)C(=O)N[C@@H](Cc1c[nH]c2ccccc12)C(=O)N[C@@H](Cc1ccc(C(=O)c2ccccc2)cc1)C(=O)N1CCC[C@H]1C(=O)NCCOCCN [compound 2968],23.5,–,EC50 [2]: 0.24 µM
N=C(N)NCCC[C@@H](NC(=O)[C@H](Cc1c[nH]cn1)NC(=O)[C@H](CO)NC(=O)[C@H](Cc1c[nH]c2ccccc12)NC(=O)[C@H](Cc1c[nH]cn1)NC(=O)[C@@H](Cc1ccc2ccccc2c1)NC(=O)CN1CCN(CC(=O)O)CCN(CC(=O)O)CCN(CC(=O)O)CC1)C(=O)N[C@@H](Cc1c[nH]c2ccccc12)C(=O)N[C@@H](Cc1ccc(C(=O)c2ccccc2)cc1)C(=O)N1CCC[C@H]1C(=O)NNC(N)=O [compound 2666],13.25,–,–
2440 (DO3A10CM-[Sar]HWSH[dR]WYP[azaGly]-NH2; reading uncertain) [compound 2440],0.21,> 10,–
2741 (DO3A10CM-[Sar][His(1-Me)]WSH[dR]W[Bpa]P[azaGly]-NH2; reading uncertain) [compound 2741],1.35,2.99,–
N=C(N)NCCC[C@@H](NC(=O)[C@H](Cc1c[nH]cn1)NC(=O)[C@H](CO)NC(=O)[C@H](Cc1c[nH]c2ccccc12)NC(=O)[C@H](Cc1c[nH]cn1)NC(=O)CN(Cc1ccccc1)C(=O)CNC(=O)CN1CCN(CC(=O)O)CCN(CC(=O)O)CCN(CC(=O)O)CC1)C(=O)N[C@@H](Cc1c[nH]c2ccccc12)C(=O)N[C@@H](Cc1ccc(C(=O)c2ccccc2)cc1)C(=O)N1CCC[C@H]1C(=O)NNC(N)=O [compound 2792],1.28,1.8,"EC50 [2, 6]: 2.27 µM; EC50 [2, 7]: 0.65 µM"
2613 (DO3A10CM-G[Sar][Dcfe4][d1Nal]S[Metyr][dK](Nicotinoyl)LK(iPr)P[dA]-NH2; reading uncertain) [compound 2613],0.17,> 10,–
B1,–,–,EC50 [3]: 2.27 µM; EC50 [4]: 1.8 µM
B2,–,–,EC50 [3]: 2.26 µM; EC50 [4]: 2.26 µM
B3,–,–,EC50 [3]: 4.62 µM; EC50 [4]: 4.62 µM
B4,–,–,EC50 [3]: 2.01 µM; EC50 [4]: 2.01 µM
B5,–,–,EC50 [3]: 1.61 µM; EC50 [4]: 1.61 µM
B6,–,–,EC50 [4]: 1.22 µM
B7,–,–,EC50 [3]: 4.55 µM; EC50 [4]: 4.55 µM
B8,–,–,EC50 [4]: 2.91 µM
B9,–,–,EC50 [4]: 3.69 µM
